According to patent US20210315893A1 (Galapagos NV, priority 2017, published 2021):

Key:
HFL-1 cells [1] = experiment: IL-8 production assay (S1P induced IL-8); type: cell-based; conditions: Homo sapiens, HFL1; S1P (1 μM) induced IL-8 in HFL-1 cells, starvation medium without HSA; read-out: IL8 EC50
Procedure, shortened: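 HFL-1 human fetal lung fibroblasts were starved in F12K/1% FBS, then given compound for 1 h (10-point, 1/3 dilution, 30 μM top, 0.3% DMSO final). S1P was added at 1 μM final for 16–24 h at 37 °C, and secreted IL-8 in supernatant quantified by ELISA.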

[2] = molecular target: T1, human GPCR sphingosine 1-phosphate receptor 2 (Homo sapiens, UniProt O95136); experiment: S1PR2 antagonist Ca2+ flux assay; type: cell-based; conditions: antagonist mode, CHO-S1PR2 cells, S1P at EC80, Ca2+ fluorescence; read-out: S1P2 EC50 (nM), S1P2 antagonist EC50
T1 construct: host or cells: CHO
Procedure, shortened: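 CHO cells stably expressing human S1PR2, serum-starved 1 h, Fluo8-loaded; compound-evoked Ca2+ fluorescence read 3 min (agonist mode), then after 15 min S1P at EC80 added and read 3 min (antagonist mode). Max/baseline fluorescence ratios normalised to vehicle and S1P EC100 or EC50 controls; EC50 derived.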

[3] = molecular target: T2, human GPCR sphingosine 1-phosphate receptor 5 (Homo sapiens, UniProt Q9H228); experiment: S1PR5 selectivity Ca2+ flux assay (antagonist readout); type: cell-based; conditions: CHO cells overexpressing human S1PR5 and Gq, agonist at EC80 (20 nM), read-out: S1P5 EC50 (nM), S1P5 antagonist EC50
T2 construct: host or cells: CHO
Source text: To evaluate the selectivity of the compounds for S1PR2 over S1PR1 and S1PR5, asimilar assay set upas described above for theS1PR2 calcium flux assays waspeformed: CHO cells stably overexpressing human GPCR sphingosine 1-phosphate receptor 1 and Gq protein (Euroscreen, FAST-0197A) or overexpressing human GPCR sphingosine 1-phosphate receptorS5 and Gq protein were used (Perkin Elmer, ES-593-A). In case of the S1PR5 assay triggering was done with an SPR5 specific agonist instead of with S1P (Hobson et al., 2015).
50 μL of Chinese hamster ovary (CHO) cells stably overexpressing human S1PR1 or S1PR5 are seeded in 384 well sterile microplates (7,500 cells/well or 10,000 cells/well respectively) and are incubated overnight at 37° C. under 5% CO2. Cells are subsequently washed twice with 25 μL/well of starvation medium (F-12 Ham's medium containing 0.1% fatty acid free bovine serum albumin (FAF BSA)). After one h starvation at 37° C., 5% CO2, cells are loaded with 25 μL of Fluo 8 dye diluted in Hank's balanced salt solution (HBSS) with 20 mM Hepes complemented with 5 mM of probenecid following the recommendations of the manufacturer (one h at 37° C., 5% CO2). Dilution series of compounds are prepared in HBSS buffer with 20 mM Hepes and 0.1% BSA (FAF). 10 μL of diluted compound is added to the cells using the FDSS/pCELL and intracellular calcium changes are measured immediately by recording fluorescence during 3 min (agonist readout). The ratio of maximal signal over background before compound injection is used to determine compound response.
After an incubation of 15 min at 37° C., following the agonist readout, the plates are transferred to the FDSS/pCELL reader. Cells are stimulated with 10 μL of EC80 concentration of S1P (6 nM for S1P1 and 20 nM for S1P5) and intracellular calcium changes are measured immediately by recording fluorescence during three min (antagonist readout). The ratio of maximal signal over background before S1P injection was used to determine the inhibitory effect ofthe compound.
Raw data obtained in each experiment (ratio of maximal signal over background for calcium mobilization assays) were normalized in percentage of activation (agonist mode) or inhibition (antagonist mode) using positive and negative experiment controls. Each individual plate quality was assessed by evaluation of Z′ factor calculated with raw data using the following equation
Y=bottom+(top−bottom)/(1+(10^(Log IC50−X)*Hillslope)) where X is the logarithm of the concentration of the compound

S1PR2 = molecular target: T3, S1PR2 (Homo sapiens, UniProt O95136); experiment: S1PR2 binding assay (competition with radioactively labeled S1P, SpA); conditions: membranes from stable cell line over expressing S1PR2, SpA beads; read-out: S1P2 EC50 (nM), S1PR2 binding EC50
T3 construct: expressed in transfected cells
Procedure, shortened: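 Competition with [3H]S1P for membranes from a stable S1PR2-overexpressing cell line, 20 μg/well, captured on PVT-WGA SPA beads, in 20 mM Tris pH 7.5, 10 mM MgCl2, 100 mM NaCl, 0.4% fatty-acid-free BSA, 1 mM Na3VO4. 2 h at room temperature, then centrifugation and scintillation counting.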

HFL-1 cells [4] = experiment: IL8 assay in the presence of Human Serum Albumin; conditions: HFL1, read-out: HSA IL8 EC50
[5] = molecular target: T4, human GPCR sphingosine 1-phosphate receptor 1 (Homo sapiens, UniProt P21453); experiment: S1PR1 selectivity Ca2+ flux assay (antagonist readout); type: cell-based; conditions: antagonist readout, CHO cells overexpressing human S1PR1 and Gq, S1P at EC80 (6 nM); read-out: S1P1 EC50 (nM), S1P1 antagonist EC50
T4 construct: host or cells: CHO
Procedure, shortened: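 CHO cells stably overexpressing human S1PR1, starved 1 h in 0.1% FAF BSA medium, then Fluo 8 dye-loaded. Compound added, then after 15 min at 37 °C, S1P-evoked Ca2+ flux recorded. Maximal signal/background ratio normalized to controls as % inhibition; IC50 from four-parameter logistic fit.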

T2 sequence (Q9H228 whole entry): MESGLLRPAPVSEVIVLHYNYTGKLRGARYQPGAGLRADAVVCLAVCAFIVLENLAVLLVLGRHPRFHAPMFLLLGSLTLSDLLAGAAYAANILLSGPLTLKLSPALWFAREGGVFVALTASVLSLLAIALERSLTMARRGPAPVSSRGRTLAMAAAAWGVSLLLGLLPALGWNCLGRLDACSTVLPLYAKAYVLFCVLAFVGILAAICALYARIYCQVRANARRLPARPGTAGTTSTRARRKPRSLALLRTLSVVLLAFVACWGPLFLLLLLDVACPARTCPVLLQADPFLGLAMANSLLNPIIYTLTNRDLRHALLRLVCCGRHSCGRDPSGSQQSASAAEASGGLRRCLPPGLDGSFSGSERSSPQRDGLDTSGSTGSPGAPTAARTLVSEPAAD
T1 sequence (O95136 whole entry): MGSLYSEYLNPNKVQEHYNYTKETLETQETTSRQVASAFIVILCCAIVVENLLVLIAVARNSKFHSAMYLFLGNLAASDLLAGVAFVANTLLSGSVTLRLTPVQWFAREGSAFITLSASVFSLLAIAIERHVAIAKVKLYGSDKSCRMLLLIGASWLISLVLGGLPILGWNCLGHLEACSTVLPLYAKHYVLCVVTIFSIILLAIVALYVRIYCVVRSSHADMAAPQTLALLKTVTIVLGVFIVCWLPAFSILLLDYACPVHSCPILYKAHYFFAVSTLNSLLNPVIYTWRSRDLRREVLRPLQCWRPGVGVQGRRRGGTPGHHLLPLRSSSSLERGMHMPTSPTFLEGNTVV
T3 sequence (O95136 whole entry): as above
T4 sequence (P21453 whole entry): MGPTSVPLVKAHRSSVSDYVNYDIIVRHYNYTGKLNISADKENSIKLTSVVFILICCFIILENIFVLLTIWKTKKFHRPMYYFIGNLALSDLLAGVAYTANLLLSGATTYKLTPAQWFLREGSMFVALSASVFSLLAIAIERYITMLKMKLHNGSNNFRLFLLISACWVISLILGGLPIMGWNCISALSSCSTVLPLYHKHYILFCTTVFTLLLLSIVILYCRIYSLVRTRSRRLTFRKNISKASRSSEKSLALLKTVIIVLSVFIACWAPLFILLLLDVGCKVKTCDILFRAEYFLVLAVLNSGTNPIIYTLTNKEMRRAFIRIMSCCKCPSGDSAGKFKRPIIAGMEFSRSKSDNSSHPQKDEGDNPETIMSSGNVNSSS

Compound	EC50 (HFL-1 cells [1]) [µM]	EC50 [2] [nM]	EC50 [3] [nM]	EC50 (S1PR2) [nM]	EC50 (HFL-1 cells [4]) [µM]	EC50 [5] [nM]
N#Cc1cc2[nH]c(Cn3nc(CC(=O)N4CCOCC4)c(=O)c4ccccc43)nc2cc1OCC(F)F [Compound 49, 6-(2,2-Difluoro-ethoxy)-2-[3-(2-morpholin-4-yl-2-oxo-ethyl)-4-oxo-4H-cinnolin-1-ylmethyl]-3H-enzoimidazole-5-carbonitrile]	0.0317	32.8	19800	92.7	0.0471	≥ 19800
COCCOc1cc2nc(Cc3nn(CC(=O)N4CCOCC4)c(=O)c4ccccc34)[nH]c2cc1C#N [Compound 51, 6-(2-methoxyethoxy)-2-[[3-(2-morpholino-2-oxo-ethyl)-4-oxo-phthalazin-1-yl]methyl]-3H-benzimidazole-5-carbonitrile]	0.177	77.3	19800	366	0.291	≥ 19800
O=c1c2ccccc2c(Cc2nc3cc(Cl)c(OC(F)(F)F)cc3[nH]2)nn1CC1CCNCC1 [Compound 56, 4-[[6-chloro-5-(trifluoromethoxy)-1H-benzimidazol-2-yl]methyl]-2-(4-piperidylmethyl)phthalazin-1-one]	3.33	839	19800	722	2.93	≥ 19800
O=c1c2ccccc2c(Cc2nc3cc(Cl)c(OC(F)(F)F)cc3[nH]2)nn1CC1CCNC1 (stereo not drawn) [Compound 57, 4-[[6-chloro-5-(trifluoromethoxy)-1H-benzimidazol-2-yl]methyl]-2-(pyrrolidin-3-ylmethyl)phthalazin-1-one]	0.552	163	19800	457	0.501	≥ 19800
N#Cc1cc2[nH]c(Cc3nn(C4CNC4)c(=O)c4ccccc34)nc2cc1OCC(F)F [Compound 68, 2-[[3-(azetidin-3-yl)-4-oxo-phthalazin-1-yl]methyl]-6-(2,2-difluoroethoxy)-3H-benzimidazole-5-carbonitrile]	0.0767	547	19800	275	0.123	≥ 19800
N#Cc1cc2[nH]c(Cc3nn(C4CN(CC(=O)O)C4)c(=O)c4ccccc34)nc2cc1OCC(F)F [Compound 69, 2-[3-[4-[[6-cyano-5-(2,2-difluoroethoxy)-1H-benzimidazol-2-yl]-methyl]-1-oxo-phthalazin-2-yl]azetidin-1-yl]acetic acid]	0.109	238	19800	272	0.0963	≥ 19800
N#Cc1cc2[nH]c(Cc3nn(CC4CCCN4CC(=O)O)c(=O)c4ccccc34)nc2cc1OCC(F)F (stereo not drawn) [Compound 70, 2-[2-[[4-[[6-cyano-5-(2,2-difluoroethoxy)-1H-benzimidazol-2-yl]methyl]-1-oxo-phthalazin-2-yl]methyl]pyrrolidin-1-yl]acetic acid]	0.251	836	19800	2100	0.443	≥ 19800

Further lines, results first:

EC50 (HFL-1 cells [1]) [µM]	EC50 [2] [nM]	EC50 [3] [nM]	EC50 (S1PR2) [nM]	EC50 (HFL-1 cells [4]) [µM]	EC50 [5] [nM]	Compound
0.0957	19.3	6610	245	2.96	≥ 19800	O=c1c2ccccc2c(Cc2nc3cc(Cl)c(OCC(F)F)cc3[nH]2)nn1C1CC1 [Compound 32, 4-[[5-chloro-6-(2,2-difluoroethoxy)-1H-benzimidazol-2-yl]methyl]-2-cyclopropyl-phthalazin-1-one]
0.0309	19.7	19800	20.6	0.443	≥ 19800	N#Cc1cc2nc(Cc3nn(C4CC4)c(=O)c4ccccc34)[nH]c2cc1OCC1CC1 [Compound 42, 6-(cyclopropylmethoxy)-2-[(3-cyclopropyl-4-oxo-phthalazin-1-yl)methyl]-1H-benzimidazole-5-carbonitrile]
0.246	195	19800	267	0.365	≥ 19800	O=C(Cc1nn(Cc2nc3cc(OCC(F)F)c(F)cc3[nH]2)c2ccccc2c1=O)N1CCOCC1 [Compound 50, 1-[5-(2,2-Difluoro-ethoxy)-6-fluoro-1H-benzoimidazol-2-ylmethyl]-3-(2-morpholin-4-yl-2-oxo-ethyl)-1H-cinnolin-4-one]
0.0467	11.6	19800	105	0.05	≥ 19800	CC(F)(F)COc1cc2nc(Cc3nn(CC(=O)N4CCOCC4)c(=O)c4ccccc34)[nH]c2cc1C#N [Compound 52, 6-(2,2-difluoropropoxy)-2-[[3-(2-morpholino-2-oxo-ethyl)-4-oxo-phthalazin-1-yl]methyl]-3H-benzimidazole-5-carbonitrile]
0.0988	94.4	19800	42	0.18	≥ 19800	O=c1c2ccccc2c(Cc2nc3cc(Cl)c(OC(F)(F)F)cc3[nH]2)nn1C1CCNC1 (stereo not drawn) [Compound 59, 4-[[6-chloro-5-(trifluoromethoxy)-1H-benzimidazol-2-yl]methyl]-2-pyrrolidin-3-yl-phthalazin-1-one]
0.0256	137	19800	131	0.0335	≥ 19800	N#Cc1cc2[nH]c(Cc3nn(C4CCNC4)c(=O)c4ccccc34)nc2cc1OCC(F)F (stereo not drawn) [Compound 64, 6-(2,2-difluoroethoxy)-2-[(4-oxo-3-pyrrolidin-3-yl-phthalazin-1-yl)methyl]-3H-benzimidazole-5-carbonitrile]
0.108	2080	19800	1030	0.0911	≥ 19800	COCCOc1cc2nc(Cc3nn(C4CCNC4)c(=O)c4ccccc34)[nH]c2cc1C#N (stereo not drawn) [Compound 65, 6-(2-methoxyethoxy)-2-[(4-oxo-3-pyrrolidin-3-yl-phthalazin-1-yl)methyl]-3H-benzimidazole-5-carbonitrile]
0.00907	37.4	19800	64.9	0.0192	≥ 19800	COCCOc1cc2nc(Cc3nn(C4CCNC4)c(=O)c4ccccc34)[nH]c2cc1Cl (stereo not drawn) [Compound 67, 4-[[6-chloro-5-(2-methoxyethoxy)-1H-benzimidazol-2-yl]methyl]-2-pyrrolidin-3-yl-phthalazin-1-one]
